Laboratory results published in patent US10370364B1, “Substituted chromenes for treatment of fibrosis or non-alcoholic steatohepatitis” (OSTEONEUROGEN INC., priority 2018, dated 2019).

Columns and labels:
[1] = Concentration of compound in plasma and lung of bleomycin fibrotic mice; type: in vivo; details: 1 hour after final administration; pirfenidone 100 mpk, Compound 1 10-100 mpk PO
Protocol: The amounts of the compound present in the plasma and lung of each of the sacrificed mice (finally administered with each compound at 1 hour before sacrifice) were measured. […] If it is attempted to formulate the compound of the present invention in various manners, it is expected that the compound of the present invention can effectively treat fibrosis even at lower concentrations.

[2] = target: CYP2C9 (Homo sapiens, UniProt P11712); assay: CYP450 inhibition, CYP2C9
[3] = target: CYP3A4 (Homo sapiens, UniProt P08684)
Chain of CYP3A4 (P08684 whole entry): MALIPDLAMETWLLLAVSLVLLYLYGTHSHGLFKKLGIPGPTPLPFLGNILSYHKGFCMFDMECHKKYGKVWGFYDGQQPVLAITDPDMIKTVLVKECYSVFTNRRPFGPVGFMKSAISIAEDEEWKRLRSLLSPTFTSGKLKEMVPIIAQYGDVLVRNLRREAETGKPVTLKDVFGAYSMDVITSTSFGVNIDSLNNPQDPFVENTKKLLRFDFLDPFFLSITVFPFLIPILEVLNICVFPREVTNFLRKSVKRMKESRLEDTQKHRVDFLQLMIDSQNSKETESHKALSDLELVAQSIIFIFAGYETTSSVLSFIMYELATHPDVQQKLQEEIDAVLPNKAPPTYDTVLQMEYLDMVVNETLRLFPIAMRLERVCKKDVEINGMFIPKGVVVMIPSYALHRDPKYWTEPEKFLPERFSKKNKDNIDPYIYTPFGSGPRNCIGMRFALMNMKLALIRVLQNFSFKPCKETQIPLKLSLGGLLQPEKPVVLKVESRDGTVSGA

Chain of CYP2C9 (P11712 whole entry): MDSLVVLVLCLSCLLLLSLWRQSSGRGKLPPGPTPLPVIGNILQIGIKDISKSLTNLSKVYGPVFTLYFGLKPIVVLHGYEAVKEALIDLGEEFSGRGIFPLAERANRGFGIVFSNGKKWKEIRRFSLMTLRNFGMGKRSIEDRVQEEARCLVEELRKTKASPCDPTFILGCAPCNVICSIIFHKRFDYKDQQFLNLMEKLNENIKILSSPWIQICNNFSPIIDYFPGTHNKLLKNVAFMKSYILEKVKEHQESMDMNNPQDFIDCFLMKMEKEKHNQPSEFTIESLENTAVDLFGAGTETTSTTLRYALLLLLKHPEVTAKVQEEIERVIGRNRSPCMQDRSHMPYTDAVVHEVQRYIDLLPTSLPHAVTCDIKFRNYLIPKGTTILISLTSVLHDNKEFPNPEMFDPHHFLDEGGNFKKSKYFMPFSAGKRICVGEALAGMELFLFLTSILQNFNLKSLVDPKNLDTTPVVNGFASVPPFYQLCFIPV

## COc1ccc(-c2cc(=O)c3c(O)c(OC)c(OCCN4CCNC(=O)C4)cc3o2)cc1OC [Compound 1, 4-(2-((2-(3,4-dimethoxyphenyl)-5-hydroxy-6-methoxy-4-oxo-4H-chromen-7-yl)oxy)ethyl)piperazin-2-one]
[1]
  concentration of the compound in the lung: relatively very low
  concentration of the compound in the plasma: relatively very low
[2]
  IC50: 5.54 µM
[3]
  inhibitory activity against CYP3A4 (in words): little or very low inhibitory activity
